The values below are quoted from earlier work in patent publication US11406658B2, “Composition comprising glycyrrhizin and cosmetic and pharmaceutical uses thereof” (ATG 20 S.R.L., priority 2018, dated 2022).

For series [1] the following is noted: background art.
The conditions of series [2]: oral administration; background art.

Take `CC1(C)[C@@H](O[C@H]2O[C@H](C(=O)O)[C@@H](O)[C@H](O)[C@H]2O[C@@H]2O[C@H](C(=O)O)[C@@H](O)[C@H](O)[C@H]2O)CC[C@]2(C)[C@H]3C(=O)C=C4[C@@H]5C[C@@](C)(C(=O)O)CC[C@]5(C)CC[C@@]4(C)[C@]3(C)CC[C@@H]12.N` [(mono)ammonium salt, (mono) ammonium glycyrrhizate]: in series [1], the solubility entry was “soluble in diluted acidic or basic solutions”. In the case of `CC1(C)[C@@H](O[C@H]2OC(C(=O)O)[C@@H](O)C(O)C2O[C@H]2OC(C(=O)O)[C@@H](O)C(O)C2O)CC[C@]2(C)[C@H]3C(=O)C=C4[C@@H]5C[C@@](C)(C(=O)O)CC[C@]5(C)CC[C@@]4(C)[C@]3(C)CC[C@@H]12` (stereo partly shown) [Glycyrrhizin], in series [1], the solubility entry is given as “not particularly water-soluble”. Moreover, in series [2], the bioavailability result was “extremely low”. On to `CC1(C)[C@@H](O[C@H]2OC(C(=O)[O-])[C@@H](O)C(O)C2O[C@H]2OC(C(=O)[O-])[C@@H](O)C(O)C2O)CC[C@]2(C)[C@H]3C(=O)C=C4[C@@H]5C[C@@](C)(C(=O)O)CC[C@]5(C)CC[C@@]4(C)[C@]3(C)CC[C@@H]12.[K+].[K+]` (stereo partly shown) [potassium salt, dipotassium glycyrrhizate], for which, in series [1], the solubility result was “water-soluble”.
